# In ChEMBL document CHEMBL4837205, “Design, synthesis and biological evaluations of a series of Pyrido[1,2-a]pyrimidinone derivatives as novel selective FGFR inhibitors” (Eur J Med Chem, 2021):
# Test: physchem
# Conditions: buffer, pH 7.4
row,SMILES,solubility [mg/mL]
1,COc1cc(OC)cc(N(CCNC(C)C)c2ccc3ncc(-c4cnn(CCN(C)C)c4)c(=O)n3c2)c1,< 0.01
2,COc1cc(OC)cc(N(CCNC(C)C)c2ccc3ncc(-c4cnn(C5CN(C(C)=O)C5)c4)c(=O)n3c2)c1,0.0591
